In one data set the test system is HCT-116. Briefly: Cytotoxic effect in colon tumor cell line (MTT). As to conditions: for viability at 10 µM: HCT-116, read-out: Viability (%) HCT-116, @10 µM; for viability at 1 µM: HCT-116, read-out: Viability (%) HCT-116, @1 µM (footnote b).
The test system of data set [1] is HCT-116-derived colonospheres. The data set is described as follows: Formation of HCT-116-derived colonospheres (CSC tumorspheres). Particulars: for inhibition at 1 µM: @1 µM (footnote b). Type of data set: cell-based. As for the experimental part: (§1) (BD Biosciences, Franklin Lakes, NJ, USA). All cells were maintained at 37 °C in a humidified incubator in an atmosphere of 5% CO2, and passaged every 2–3 days.
(§2) Additionally, they were cultured using RPMI media (Gibco/Life Technologies; Grand […]
(§3) Colonospheres, mamospheres and colony formation unit assays. 30.000 cells per well of MCF-7 cells (mamos pheres), HCT-116 cells (colonospheres) and CD34+ cells from patients (colony formation units) were seeded in serum free non- adherent medium or […]
(§4) MethoCult (Stem Cell). […]

The next data set relates to MCF-7. The data set is described as follows: Cytotoxic effect in breast tumor cell line (MTT). As to conditions: for viability at 10 µM / viability at 1 µM / viability at 5 µM: Homo sapiens; for viability at 10 µM: MCF7, read-out: Viability (%) MCF-7, @10 µM; for viability at 1 µM: MCF7, read-out: Viability (%) MCF-7, @1 µM (footnote b); for viability at 5 µM: MCF7, read-out: Viability (%) MCF-7, @5 µM (footnote d).

For data set [2], the system named is MCF-7-derived mamospheres. Briefly: Formation of MCF-7-derived mamospheres (CSC tumorspheres). The class given is cell-based. As to conditions: for inhibition at 10 µM / inhibition at 1 µM / inhibition at 5 µM: Homo sapiens, MCF7, read-out: Inhibition of tumorsphere formation (%) MCF-7; for inhibition at 1 µM: @1 µM (footnote b); for Formation of tumorspheres (in words): MCF-7 mamospheres and HCT-116 colonospheres, noncytotoxic concentration; for inhibition at 5 µM: @5 µM (footnote d). The procedure: as §1, §2, §3, §4

A short description of data set [3]: Viability of non-tumor fibroblast cell line. Type of data set: cell-based. Particulars: human, IMR90 non-tumor fibroblasts; for viability at 48 h, 1 µM: @1 µM (footnote b). As for the experimental part: The test compound was diluted in PBS.
Viability (%) tum orsphere form ation (%)

[4] abbreviates: Homo sapiens, HCT-116, @10 µM, read-out: Inhibition of tumorsphere formation (%) HCT-116.
The mark [5] stands for this setting: Homo sapiens, HCT-116, read-out: Inhibition of tumorsphere formation (%) HCT-116.

For `COc1ccc([C@@H]2CC(=O)N(CC3CC3)C[C@H]2N)cc1` [1a], the figures for the viability at 10 µM in the data set on HCT-116 (Homo sapiens) and in the data set with MCF-7 were 70 ± 2% and 91 ± 7%, respectively. The inhibition at 10 µM in data set [1] (setting [4]) and in data set [2] (@10 µM) was 0% in each case.
As for `COc1ccc(C2CC(=O)N(CC3CC3)CC2N)cc1` (stereo not shown) [1b], the viability at 10 µM in the data set on HCT-116 (Homo sapiens) turned out to be 97 ± 2%; with MCF-7 it was 80 ± 2%. Also, the inhibition at 10 µM in data set [1] (setting [4]) and in data set [2] (@10 µM) was 0% in each case.
As for `COc1ccc([C@@H]2CCN(CC3CC3)C[C@H]2N)cc1` [2a], the viability at 10 µM in the data set on HCT-116 (Homo sapiens) came out at 90 ± 1%; with MCF-7 it was 96 ± 3%. Further, the inhibition at 10 µM in data set [1] (setting [4]) and in data set [2] (@10 µM) was 0% in each case.
For `COc1ccc([C@H]2CCN(CC3CC3)C[C@@H]2N)cc1` [2b], the results for the viability at 10 µM in the data set on HCT-116 (Homo sapiens) and with MCF-7 were 94 ± 3% and 97 ± 3%, respectively. The inhibition at 10 µM in data set [1] (setting [4]) and in data set [2] (@10 µM) was 0% each time.
With `COc1ccc([C@@H]2CCNC[C@H]2NCC2CC2)cc1` [3a], the results for the viability at 10 µM with HCT-116 (Homo sapiens) and in the data set on MCF-7 were 95 ± 1% and 98 ± 2%, respectively. For the same molecule, the inhibition at 10 µM in data set [1] (setting [4]) and in data set [2] (@10 µM) was 0% in each case.
With `COc1ccc([C@H]2CCNC[C@@H]2NCC2CC2)cc1` [3b], the viability at 10 µM was found to be 94 ± 3% with HCT-116 (Homo sapiens) and 95 ± 4% in the data set with MCF-7. Further, the inhibition at 10 µM in data set [1] (setting [4]) and in data set [2] (@10 µM) was 0% in each case.
As to `COc1ccc([C@@H]2Cc3[nH]c4ccccc4c3[C@H](CCNCC3CC3)[C@H]2N)cc1` [4a, 4-{2-[(Cyclopropylmethyl)amino]ethyl}-2-(4-methoxyphenyl)-2,3,4,9-tetrahydro-1H-carbazol-3-amine], the viability at 0.1 µM with HCT-116 (Homo sapiens, HCT-116, read-out: Viability (%) HCT-116, @0.1 µM (footnote c)) is 85 ± 2%. In data set [1] (Homo sapiens, HCT-116, @0.1 µM (footnote c), read-out: Inhibition of tumorsphere formation (%) HCT-116), the inhibition at 0.1 µM amounted to 0%. For the same molecule, the viability at 1 µM in the data set with MCF-7 stood at 92 ± 7%. In addition, the inhibition at 1 µM in data set [2] turned out to be 0%.
With `COc1ccc([C@H]2Oc3ccccc3[C@H]3[C@@H](N)[C@H](c4ccc(OC)cc4)C(CNCC4CC4)=C[C@@H]32)cc1` [5a], in the data set on HCT-116 (Homo sapiens), the viability at 1 µM was determined as 87 ± 1%. In data set [1] (setting [5]), the inhibition at 1 µM is 100%. In data set [3], this molecule registered a viability at 48 h, 1 µM of 83 ± 6% and a viability at 48 h, 5 µM of 20 ± 5%. In the data set with MCF-7, the viability at 1 µM amounted to 99 ± 1%. Further, in data set [2], the inhibition at 1 µM is 100% and the “Formation of tumorspheres (in words)” value was “completely inhibit”.
On to `COc1ccc([C@H]2C(CNCC3CC3)=C[C@@H]3[C@H](c4ccccc4O[C@H]3c3ccc(OC)cc3)[C@@H]2N)cc1` [5b], for which the viability at 1 µM in the data set with HCT-116 (Homo sapiens) was found to be 94 ± 6%. Besides, in data set [1] (setting [5]), the inhibition at 1 µM was found to be 100%. In data set [3], this molecule returned a viability at 48 h, 1 µM of 98 ± 2% and a viability at 48 h, 5 µM of 28 ± 7%. For the same molecule, the viability at 1 µM in the data set with MCF-7 was 87 ± 1%. For the same molecule, in data set [2], the inhibition at 1 µM came out at 100% and the “Formation of tumorspheres (in words)” value is given as “completely inhibit”.
`COc1ccc([C@@H]2C(CNCC3CC3)=C[C@H]3[C@@H](c4ccccc4OC3(C)C)[C@H]2N)cc1` [6a]: the viability at 1 µM with HCT-116 (Homo sapiens) was found to be 81 ± 6%. For the same molecule, in data set [1] (setting [5]), the inhibition at 1 µM was determined as 100%. Further, in data set [3], the viability at 48 h, 1 µM is 95 ± 5% and the viability at 48 h, 5 µM is 53 ± 12%. Moreover, the viability at 5 µM in the data set on MCF-7 came out at 94 ± 11%. Besides, in data set [2], the inhibition at 5 µM amounted to 100% and the “Formation of tumorspheres (in words)” value is on record as “completely inhibit”.
`COc1ccc([C@H]2C(CNCC3CC3)=C[C@@H]3[C@H](c4ccccc4OC3(C)C)[C@@H]2N)cc1` [6b]: the viability at 1 µM in the data set with HCT-116 (Homo sapiens) was determined as 78 ± 9%. Besides, the inhibition at 1 µM in data set [1] (setting [5]) came out at 100%. Besides, in data set [3], the viability at 48 h, 5 µM is 57 ± 13%. The viability at 5 µM in the data set with MCF-7 amounted to 94 ± 5%. For the same molecule, in data set [2], the inhibition at 5 µM worked out at 100% and the “Formation of tumorspheres (in words)” value was “completely inhibit”.
`COc1ccc2c(c1)[C@H]1C(=NO)N(CC3CC3)C[C@@H]1C(C)(C)O2` [7a]: the values for the viability at 10 µM in the data set on HCT-116 (Homo sapiens) and in the data set with MCF-7 were 92 ± 1% and 98 ± 1%, respectively. In addition, the inhibition at 10 µM in data set [1] (setting [4]) and in data set [2] (@10 µM) was 0% in each case.
Take `COc1ccc2c(c1)C1C(=NO)N(CC3CC3)CC1C(C)(C)O2` (stereo not shown) [7b]: the viability at 10 µM worked out at 95 ± 2% in the data set on HCT-116 (Homo sapiens) and 96 ± 2% in the data set with MCF-7. For the same molecule, the inhibition at 10 µM in data set [1] (setting [4]) and in data set [2] (@10 µM) was 0% throughout.
`COc1ccc2c(c1)[C@H]1CN(CC3CC3)C[C@@H]1C(C)(C)O2` [8a]: the viability at 10 µM was determined as 94 ± 6% in the data set on HCT-116 (Homo sapiens) and 65 ± 1% with MCF-7. Also, the inhibition at 10 µM in data set [1] (setting [4]) and in data set [2] (@10 µM) was 0% in each case.
With `COc1ccc2c(c1)C1CN(CC3CC3)CC1C(C)(C)O2` (stereo not shown) [8b], the values for the viability at 10 µM with HCT-116 (Homo sapiens) and in the data set on MCF-7 were 93 ± 2% and 98 ± 1%, respectively. For the same molecule, the inhibition at 10 µM in data set [1] (setting [4]) and in data set [2] (@10 µM) was 0% in each case.
On to `COc1ccc2c(c1)[C@H]1C(=O)N(CC3CC3)C[C@@H]1C(C)(C)O2` [9a], for which the viability at 10 µM in the data set with HCT-116 (Homo sapiens) was 94 ± 2%; with MCF-7, 73 ± 5%. Also, the inhibition at 10 µM in data set [1] (setting [4]) and in data set [2] (@10 µM) was 0% each time.
With `COc1ccc2c(c1)C1C(=O)N(CC3CC3)CC1C(C)(C)O2` (stereo not shown) [9b], the viability at 10 µM came to 90 ± 3% with HCT-116 (Homo sapiens) and 65 ± 2% in the data set with MCF-7. In addition, the inhibition at 10 µM in data set [1] (setting [4]) and in data set [2] (@10 µM) was 0% in each case.
In the case of `COc1ccc([C@@H]2Oc3ccccc3[C@H](CN)[C@H]2C(=O)NCC2CC2)cc1` [10b], the viability at 10 µM in the data set on HCT-116 (Homo sapiens) amounted to 70 ± 1%; in the data set with MCF-7, 94 ± 5%. Besides, the inhibition at 10 µM in data set [1] (setting [4]) and in data set [2] (@10 µM) was 0% each time.
Consider `COc1ccc2c(c1)[C@@H](CN)[C@H](C(=O)NCC1CC1)C(C)(C)O2` [11a], for which the viability at 10 µM with HCT-116 (Homo sapiens) worked out at 94 ± 2%; in the data set on MCF-7 it was 92 ± 2%. For the same molecule, the inhibition at 10 µM in data set [1] (setting [4]) and in data set [2] (@10 µM) was 0% in each case.
As for `COc1ccc2c(c1)[C@H](CN)[C@@H](C(=O)NCC1CC1)C(C)(C)O2` [11b], the figures for the viability at 10 µM in the data set with HCT-116 (Homo sapiens) and with MCF-7 were 94 ± 2% and 99 ± 1%, respectively. In addition, the inhibition at 10 µM in data set [1] (setting [4]) and in data set [2] (@10 µM) was 0% each time.
Take `COc1ccc2c(c1)[C@@H](CN)[C@H](CNCC1CC1)C(C)(C)O2` [12a]: the viability at 10 µM was determined as 90 ± 4% in the data set on HCT-116 (Homo sapiens) and 90 ± 2% in the data set on MCF-7. In addition, the inhibition at 10 µM in data set [1] (setting [4]) and in data set [2] (@10 µM) was 0% in each case.
As to `COc1ccc2c(c1)[C@H](CN)[C@@H](CNCC1CC1)C(C)(C)O2` [12b], the viability at 10 µM worked out at 92 ± 3% with HCT-116 (Homo sapiens) and 73 ± 3% in the data set on MCF-7. In addition, the inhibition at 10 µM in data set [1] (setting [4]) and in data set [2] (@10 µM) was 0% in each case.
Regarding `COc1ccc(C2C(CNCC3CC3)=Cc3nccnc3N2C)cc1` (stereo not shown) [13a], the viability at 10 µM in the data set on HCT-116 (Homo sapiens) was 85 ± 7%. Besides, the inhibition at 10 µM in data set [1] (setting [4]) and in data set [2] (@10 µM) was 0% in each case.
Take `COc1ccc(C2C(CNCC3CC3)=Cc3nccnc3N2C)cc1` (stereo not shown) [13b]: the “Viability (%) HCT-116” value in the data set with HCT-116 (@10 µM) turned out to be 90 ± 3%. The “Inhibition of tumorsphere formation (%) HCT-116” value in data set [1] (@10 µM) is listed as 0%. In addition, in the data set with MCF-7 (@10 µM), the “Viability (%) MCF-7” value is recorded as 89 ± 6%. In addition, the “Inhibition of tumorsphere formation (%) MCF-7” value in data set [2] (@10 µM) was found to be 0%.

Usually viability stands for the share of living cells, or the viability signal relative to a control. What is called inhibition is the relative decrease from the control value, in per cent.
